In ChEMBL document CHEMBL1121750, “Adenosine deaminase inhibitors. Conversion of a single chiral synthon into erythro- and threo-9-(2-hydroxy-3-nonyl)adenines” (J Med Chem, 1981) one finds Ki data, which are given here for six compounds.

The assay has as its target T1, Adenosine deaminase (Homo sapiens, UniProt P00813).
T1 sequence (P00813 whole entry): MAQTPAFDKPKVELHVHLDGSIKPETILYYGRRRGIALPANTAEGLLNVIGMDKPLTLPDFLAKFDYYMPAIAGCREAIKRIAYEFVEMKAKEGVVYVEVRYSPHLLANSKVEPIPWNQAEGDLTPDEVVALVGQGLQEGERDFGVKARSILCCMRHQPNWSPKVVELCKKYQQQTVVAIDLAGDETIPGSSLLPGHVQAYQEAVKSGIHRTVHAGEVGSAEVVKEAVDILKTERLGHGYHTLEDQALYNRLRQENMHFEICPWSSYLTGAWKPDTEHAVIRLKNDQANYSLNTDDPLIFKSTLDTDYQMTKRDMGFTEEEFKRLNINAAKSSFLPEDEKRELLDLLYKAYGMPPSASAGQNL
Briefly: Compound was evaluated for the inhibition of adenosine deaminase.

In general, Ki refers to the equilibrium dissociation constant of an inhibitor or competing ligand from its target.

`CCCCCC[C@H]([C@@H](C)O)n1cnc2c(N)ncnc21` had an inhibitory constant (Ki) of 122 nM.

Compound `CCCCCC[C@@H]([C@@H](C)O)n1cnc2c(N)ncnc21` (stereo in doubt; erythro) [EHNA] displayed an inhibition constant Ki of 0.4 nM.

`CCCCCC[C@@H]([C@@H](C)O)n1cnc2c(N)ncnc21` (stereo in doubt; (-)) [EHNA] showed an inhibition constant Ki of 500 nM. This Ki is about 1200-fold higher than that of the compound before.

As to `CCCCCC[C@H]([C@H](C)O)n1cnc2c(N)ncnc21` [(+)-EHNA], the inhibitory constant (Ki) amounted to 2 nM. Compared with the last compound, the Ki is about 250-fold lower.

Consider `CCCCCC[C@@H]([C@H](C)O)n1cnc2c(N)ncnc21`, for which the affinity, expressed as Ki, was 80 nM.

Turning to `OC[C@H]1O[C@@H](n2cnc3c2N=CNC[C@H]3O)[C@H](O)[C@@H]1O` [COFORMYCIN], the inhibitory constant (Ki) is 0.1 nM.
